Where “and” joins values, the source holds several entries; their conditions need not be identical. Identical values can stand only once.
What was measured:
Type in all cases: in vivo, Wistar rat
female Wistar rats [1] = assay: Diuretic and saluretic activity: excretion of an aqueous saline load (TABLE 1); settings: 5 mg/kg oral
Protocol: (§1) Both the CM/1 and the Indapamide were administered orally after being suitably dissolved in the following solvent:
(§2) The controls were treated with an equal volume of solvent. The experiments were carried out on animals which had regularly fasted for at least 12 hours, but had free access to water.
(§3) The sodium and potassium in the urine were determined by a photometric method.
The effect on the excretion of an aqueous saline load was first checked. 18 female Wistar rats were used divided into three groups, one of 8 and two of 5, and these were treated in the following manner:
GROUP A: CONTROLS 1 ml of solvent made up to 50 ml with 0.9% sodium chloride solution, administered by gastric probe, per kg of body weight (=50 ml/kg in terms of volume);
GROUP B: INDAPAMIDE 5 mg/kg in 1 ml/kg of solvent made up to 50 ml/kg with sodium chloride solution, administered by gastric probe;
GROUP C: CM/1,5 mg/kg using the same method as for the Indapamide.
The rats were placed immediately in individual metabolic cages for collecting the urine during the three hours subsequent to the load. The quantity of urine excreted is given as a percentage of the quantity administered. The sodium and potassium are expressed in mEq/3h.
Values of P less than 0.05 have been considered significant.

male rats = assay: Diuretic and saluretic activity: excretion of a load of distilled water (TABLE 2); settings: 5 mg/kg oral + aqueous load
Protocol: as §1, §2, §3
The rats were then immediately placed in individual metabolic cages. The urine was collected over 4 hours. The quantity has been expressed in the usual manner as a percentage of the volume administered.
Sodium and potassium were also analysed, and these have been expressed as mEq/4h.
After two days, in the preceding manner, the same rats were treated with Indapamide, and after a further two days with the product CM/1. In the interval between one test and the other, the rats were housed and fed in the normal manner. The dose used for both compounds was the same as previously, i.e. 5 mg/kg.

female Wistar rats [2] = assay: Effect on spontaneous diuresis (TABLE 3); settings: 5 mg/kg oral; for Excreted sodium/potassium ratio: 12 h; for Potassium excretion / Sodium excretion: spontaneous diuresis
Protocol: These investigations were carried out on Wistar rats of both sexes, having a body weight which is specified in each case in the relative tables, which compare the results with Indapamide. Both the CM/1 and the Indapamide were administered orally after being suitably dissolved in the following solvent:
as §2, §3
Finally, the effect on the new product of spontaneous diuresis was determined.
These investigations were carried out on 15 female Wistar rats having a body weight varying from 230 to 260 g, and divided at random into three groups of 5. The animals were kept in individual metabolic cages overnight for a period of 12 hours in order to collect the urine spontaneously excreted. One group was treated as usual with 1 ml/kg of solvent by means of a gastric probe, and the other two were treated respectively with 5 mg/kg of Indapamide and 5 mg/kg of CM/1. The sodium and potassium were analysed as usual in the urine collected.

[3] = saline load, mean ± standard error, n = 5

SMILES: CC1Cc2ccccc2N1NC(=O)c1ccc(Cl)c(S(N)(=O)=O)c1 (stereo not drawn) [Indapamide, N-(3-sulphamyl-4-chlorobenzamido)-2-methylindoline, reference compound]
- Urine excretion of load in percent of quantity administered (cumulative excretion), 1 hour (female Wistar rats [1]; individual rats): 16.7% and 12.5% and 8.7% and 6.7%
- Urine excretion of load in percent of quantity administered (cumulative excretion), 2 hours (female Wistar rats [1]; individual rats): 50.0% and 37.5% and 26.1% and 30.8% and 52.2%
- Urine excretion of load in percent of quantity administered (cumulative excretion), 3 hours (female Wistar rats [1]; individual rats): 83.3% and 81.2% and 65.2% and 69.2% and 100.0%
- Urine excretion of load in percent of quantity administered (cumulative excretion), 1 hour (female Wistar rats [1]; mean ± standard error, n = 5): 10.66 ± 1.77%
- Urine excretion of load in percent of quantity administered (cumulative excretion), 2 hours (female Wistar rats [1]; mean ± standard error, n = 5): 39.32 ± 5.15%
- diuretic and saluretic effect (female Wistar rats [1]; relative to the controls): significant diuretic and saluretic effect relative to the controls
- ratio of the sodium to the potassium excreted during the 3 hours (female Wistar rats [1]; saline load): 4.48
- Potassium excretion (female Wistar rats [1]; saline load, individual rats): 0.36 mEq/3h and 0.38 mEq/3h and 0.28 mEq/3h and 0.31 mEq/3h and 0.33 mEq/3h
- Sodium excretion (female Wistar rats [1]; saline load, individual rats): 1.50 mEg/3h and 1.45 mEg/3h and 1.33 mEg/3h and 1.61 mEg/3h and 1.55 mEg/3h
- Potassium excretion (female Wistar rats [1]; [3]): 0.332 ± 0.0177 mEq/3h
- Sodium excretion (female Wistar rats [1]; [3]): 1.488 ± 0.047 mEg/3h
- excreted sodium and potassium (female Wistar rats [1]; versus controls): significantly higher than the controls
- diuretic and saluretic action (male rats): significant diuretic and saluretic action
- RATIO Na/K (sodium to potassium excreted) (male rats; 4 h, average): 1.6764
- Cumulative percent excretion at 1 hour from load (male rats; individual rats): 25.8% and 35.7% and 0.0% and 27.6% and 51.6%
- Cumulative percent excretion at 2 hours from load (male rats; individual rats): 83.9% and 92.8% and 42.9% and 82.8% and 101.7%
- Cumulative percent excretion at 3 hours from load (male rats; individual rats): 116.1% and 107.2% and 85.8% and 110.4% and 121.1%
- Cumulative percent excretion at 4 hours from load (male rats; individual rats): 138.7% and 107.2% and 114.4% and 110.4% and 140.5%
- Potassium excretion (male rats; individual rats): 0.00998 mEq/4h and 0.00543 mEq/4h and 0.00814 mEq/4h and 0.00692 mEq/4h and 0.01579 mEq/4h
- Sodium excretion (male rats; individual rats): 0.01808 mEq/4h and 0.00771 mEq/4h and 0.01403 mEq/4h and 0.01077 mEq/4h and 0.02694 mEq/4h
- Cumulative percent excretion at 1 hour from load (male rats; mean of 5 rats): 28.14%
- Cumulative percent excretion at 2 hours from load (male rats; mean of 5 rats): 80.82%
- Cumulative percent excretion at 3 hours from load (male rats; mean of 5 rats): 108.12%
- Cumulative percent excretion at 4 hours from load (male rats; mean of 5 rats): 122.24 ± 4.47%
- Potassium excretion (male rats; mean of 5 rats): 0.009252 mEq/4h
- Sodium excretion (male rats; mean of 5 rats): 0.01551 mEq/4h
- diuretic action (female Wistar rats [2]): marked diuretic action
- sodium and potassium excretion (female Wistar rats [2]): increased
- Excreted sodium/potassium ratio (female Wistar rats [2]; individual rats): 1.170 and 1.417 and 1.803 and 1.346 and 1.555
- Excreted sodium/potassium ratio (female Wistar rats [2]; mean ± standard error, n = 5): 1.4582 ± 0.106
- ml of urine collected in 12 hours (female Wistar rats [2]; individual rats): 11.5 mL and 13.7 mL and 18.6 mL and 14.5 mL and 15.5 mL
- ml of urine collected in 12 hours (female Wistar rats [2]; mean ± standard error, n = 5): 14.76 ± 1.16 mL
- Potassium excretion (female Wistar rats [2]; individual rats): 4.560 mEq/12h and 3.356 mEq/12h and 3.760 mEq/12h and 5.776 mEq/12h and 4.352 mEq/12h
- Sodium excretion (female Wistar rats [2]; individual rats): 5.335 mEq/12h and 4.756 mEq/12h and 6.780 mEq/12h and 7.775 mEq/12h and 6.767 mEq/12h
- Potassium excretion (female Wistar rats [2]; mean ± standard error, n = 5): 4.3608 ± 0.413 mEq/12h
- Sodium excretion (female Wistar rats [2]; mean ± standard error, n = 5): 6.2826 ± 0.544 mEq/12h
